The target in assay [1] is human TYK2 (JH2domain-pseudokinase) (Homo sapiens (Human), UniProt P29597). Briefly: TYK2 JH2 Domain Binding Assay (KINOMEscan). The procedure, abridged:
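Pseudokinase domain binding was measured by qPCR of tagged, bead-retained kinase after 1 h room-temperature competition, with 0.9% DMSO and compound up to 30,000 nM in 3-fold steps. Hill-equation Kd, duplicate.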

For assay [2], the target named is Tyk2 kinase domain (DH1) (Homo sapiens (Human), UniProt P29597). Put plainly: Tyk2 Radioactive Kinase Assay. The format is biochemical. The conditions noted are these: for inhibition at 10 µM: read-out: Tyk2 JH1% Inhibition @ 10 μM. An outline of the steps: (§1)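 Values are single-concentration percent inhibition figures. They were obtained with 10 μM compound in a radioactivity-based kinase assay run separately on each enzyme.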

The target of assay [3] is JAK2 kinase domain (JH1) (Homo sapiens (Human), UniProt O60674). Briefly: JAK2 Radioactive Kinase Assay. The assay is classed as biochemical. The conditions noted are these: for inhibition at 10 µM: read-out: JAK2 JH1% Inhibition @ 10 μM. An outline of the steps:
as §1

Consider 28 molecules from patent publication US10508120B2, “TYK2 inhibitors and uses thereof” (Nimbus Lakshmi, Inc., priority 2017, dated 2019).

Like-named read-outs stand apart in the source and are kept apart here.

The term Kd denotes the constant that tells how readily two partners part at equilibrium. The inhibition is the change of the read-out against control, counted positive when it falls.

JAK2 kinase domain (JH1), sequence (O60674 849-1124): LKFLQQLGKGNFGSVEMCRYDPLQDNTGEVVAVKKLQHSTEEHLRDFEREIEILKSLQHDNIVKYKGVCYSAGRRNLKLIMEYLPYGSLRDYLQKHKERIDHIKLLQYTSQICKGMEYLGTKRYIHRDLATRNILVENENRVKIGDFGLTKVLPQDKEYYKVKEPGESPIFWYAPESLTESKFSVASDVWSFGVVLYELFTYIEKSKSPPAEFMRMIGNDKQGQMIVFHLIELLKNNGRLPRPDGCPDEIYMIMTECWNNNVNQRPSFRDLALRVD
Tyk2 kinase domain (DH1), sequence (P29597 897-1176): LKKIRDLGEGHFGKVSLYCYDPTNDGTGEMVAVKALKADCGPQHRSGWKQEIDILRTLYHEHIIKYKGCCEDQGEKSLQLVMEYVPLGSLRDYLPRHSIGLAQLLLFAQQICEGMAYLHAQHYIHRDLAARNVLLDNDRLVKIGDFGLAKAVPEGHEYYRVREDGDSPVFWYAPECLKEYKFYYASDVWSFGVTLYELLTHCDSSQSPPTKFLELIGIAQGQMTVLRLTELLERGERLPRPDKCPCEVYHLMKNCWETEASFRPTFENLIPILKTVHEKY
human TYK2 (JH2domain-pseudokinase), sequence (P29597 556-888): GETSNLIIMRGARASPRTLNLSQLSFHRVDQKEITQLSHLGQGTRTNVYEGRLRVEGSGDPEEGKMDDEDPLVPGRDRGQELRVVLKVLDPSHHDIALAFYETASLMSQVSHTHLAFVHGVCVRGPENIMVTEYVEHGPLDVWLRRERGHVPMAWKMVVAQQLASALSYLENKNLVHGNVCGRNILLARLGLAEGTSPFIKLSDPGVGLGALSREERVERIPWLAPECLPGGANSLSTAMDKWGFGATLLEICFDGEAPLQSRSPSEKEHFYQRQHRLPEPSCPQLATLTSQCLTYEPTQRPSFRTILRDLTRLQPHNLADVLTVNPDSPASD

`CNc1cc(Nc2cccn([C@@H]3CCCOC3)c2=O)nc2c(C(=O)N[C@H]3CC[C@H](O)C3)cnn12` [I-738] returned a Kd in assay [1] of 0.2 to 1 nM. In addition, in assay [2] (compound at 10 μM, ATP 10 μM), the “Tyk2 JH1% Inhibition @ 10 μM” value is “A (percent inhibition at 10 μM lower than 50)”. For the same molecule, the “JAK2 JH1% Inhibition @ 10 μM” value in assay [3] (compound at 10 μM, ATP 10 μM) is listed as “A (percent inhibition at 10 μM lower than 50)”.
`CNc1cc(Nc2cc(C)nn(-c3cnn(C)c3)c2=O)nc2c(C(N)=O)cnn12` [I-73] returned a Kd in assay [1] of 1 to 10 nM. Besides, the inhibition at 10 µM in assay [2] (compound at 10 μM, ATP 10 μM) was less than 50%; in assay [3] (compound at 10 μM, ATP 10 μM) it was less than 50%.
Consider `CNc1cc(Nc2cccn([C@@H]3CCC[C@@H](O)C3)c2=O)nc2c(C(=O)N[C@@H]3CC[C@H]3OC)cnn12` [I-1130], for which, in assay [1], the Kd was less than 0.2 nM. Moreover, the inhibition at 10 µM in assay [2] (10 μM compound, 10 μM ATP) was less than 50%; in assay [3] (10 μM compound, 10 μM ATP) it was less than 50%.
`CNc1cc(Nc2cccn(CCOC3CC3)c2=O)nc2c(C(=O)N[C@@H]3CC[C@H]3O)cnn12` [I-513] came in with a Kd in assay [1] of less than 0.2 nM. Besides, in assay [2] (compound at 10 μM, ATP 10 μM), the “Tyk2 JH1% Inhibition @ 10 μM” value is recorded as “A (percent inhibition at 10 μM lower than 50)”. For the same molecule, in assay [3] (compound at 10 μM, ATP 10 μM), the “JAK2 JH1% Inhibition @ 10 μM” value is listed as “A (percent inhibition at 10 μM lower than 50)”.
Molecule `CNc1cc(-c2cn(CCN3CCCCC3)c3ncccc23)nc2c(C(=O)N[C@@H]3CC[C@@H]3O)cnn12` [I-874] gave a dissociation constant (Kd) in assay [1] of 1 to 10 nM. Besides, the inhibition at 10 µM was less than 50% in assay [2] (10 μM compound, 10 μM ATP) and less than 50% in assay [3] (10 μM compound, 10 μM ATP).
In turn, `CNc1cc(-c2cn(C3CCOCC3)c3ncccc23)nc2c(C(=O)N[C@@H]3CC[C@@H]3O)cnn12` [I-1114] had a Kd in assay [1] of 0.2 to 1 nM. The inhibition at 10 µM was less than 50% in assay [2] (10 μM compound, 10 μM ATP) and less than 50% in assay [3] (10 μM compound, 10 μM ATP).
As to `CNc1cc(Nc2cc(Cl)cn([C@@H]3CCCN(C)C3)c2=O)nc2c(C(=O)N[C@@H]3C[C@@H]3F)cnn12` [I-853], the Kd in assay [1] was less than 0.2 nM. Moreover, the inhibition at 10 µM in assay [2] (10 μM compound, 10 μM ATP) is less than 50%; in assay [3] (10 μM compound, 10 μM ATP), less than 50%.
For `CNc1cc(Nc2cccnc2OC2CC2)nc2c(C(=O)N[C@H]3CC[C@H]3O)cnn12` [I-402], the Kd in assay [1] is 0.2 to 1 nM. In addition, the inhibition at 10 µM in assay [2] (compound at 10 μM, ATP 10 μM) is less than 50%; in assay [3] (compound at 10 μM, ATP 10 μM) it was less than 50%.
Molecule `CNc1cc(Nc2cccnc2OC)nc2c(C(=O)N[C@@H]3CC[C@@H]3O)cnn12` [I-430] showed a Kd in assay [1] of 0.2 to 1 nM. Also, the inhibition at 10 µM in assay [2] (compound at 10 μM, ATP 10 μM) is less than 50%; in assay [3] (compound at 10 μM, ATP 10 μM), less than 50%.
In assay [1], `CCOc1ccc(-n2cccc(Nc3cc(N)n4ncc(C(N)=O)c4n3)c2=O)nn1` [I-33] registered a Kd of 0.2 to 1 nM. Also, the inhibition at 10 µM is less than 50% in assay [2] (compound at 10 μM, ATP 10 μM) and less than 50% in assay [3] (compound at 10 μM, ATP 10 μM).
`CNc1cc(Nc2cccn(-c3ccnn3C)c2=O)nc2c(C(=O)NC3CC3)cnn12` [I-327] displayed a Kd in assay [1] of 0.2 to 1 nM. Besides, the inhibition at 10 µM in assay [2] (compound at 10 μM, ATP 10 μM) was less than 50%; in assay [3] (compound at 10 μM, ATP 10 μM) it was less than 50%.
`CNc1cc(Nc2cccn(-c3ccccc3F)c2=O)nc2c(C(=O)NCC(C)CO)cnn12` (stereo not drawn) [I-941] returned an equilibrium dissociation constant (Kd) in assay [1] of less than 0.2 nM. Further, the inhibition at 10 µM is less than 50% in assay [2] (10 μM compound, 10 μM ATP) and less than 50% in assay [3] (10 μM compound, 10 μM ATP).
For `CNc1cc(Nc2cccn(-c3ncccc3F)c2=O)nc2c(C(=O)NCC(C)CO)cnn12` (stereo not drawn) [I-593, 5-((3′-fluoro-2-oxo-2H-[1,2′-b]pyridinyl-3-yl)amino)-N-(3-hydroxy-2-methylpropyl)-7-(methylamino)pyrazolo[1,5-a]pyrimidine-3-carboxamide], the Kd in assay [1] is less than 0.2 nM. In addition, the inhibition at 10 µM in assay [2] (compound at 10 μM, ATP 10 μM) was less than 50%; in assay [3] (compound at 10 μM, ATP 10 μM), less than 50%.
Molecule `CNc1cc(-c2nn(C(C)C)c3ncccc23)nc2c(C(=O)NC3CC3)cnn12` [I-440] yielded a Kd in assay [1] of 0.2 to 1 nM. In addition, the inhibition at 10 µM in assay [2] (compound at 10 μM, ATP 10 μM) is less than 50%; in assay [3] (compound at 10 μM, ATP 10 μM), less than 50%.
Turning to `CNc1cc(Nc2cccnc2OC2CCOCC2)nc2c(C(=O)NC3CCC3)cnn12` [I-185], in assay [1], the Kd was 0.2 to 1 nM. The inhibition at 10 µM in assay [2] (compound at 10 μM, ATP 10 μM) was less than 50%; in assay [3] (compound at 10 μM, ATP 10 μM), less than 50%.
Take `CNc1cc(Nc2cccn([C@@H]3CCN(C)C[C@H]3F)c2=O)nc2c(C(=O)NC3CC3)cnn12` [I-686]: the Kd in assay [1] was in the range of 0.2 to 1 nM. Moreover, the inhibition at 10 µM was less than 50% in assay [2] (compound at 10 μM, ATP 10 μM) and less than 50% in assay [3] (compound at 10 μM, ATP 10 μM).
For the molecule `CNc1cc(Nc2cccn(C3CCOC3)c2=O)nc2c(C(N)=O)cnn12` (stereo not drawn) [I-108], the Kd in assay [1] lay within 0.2 to 1 nM. Also, the inhibition at 10 µM in assay [2] (compound at 10 μM, ATP 10 μM) was less than 50%; in assay [3] (compound at 10 μM, ATP 10 μM), less than 50%.
On to `CNc1cc(Nc2cccn(CCOC3CC3)c2=O)nc2c(C(=O)NCC3(CO)CC3)cnn12` [I-577, 5-((1-(2-cyclopropoxyethyl)-2-oxo-1,2-dihydropyridin-3-yl)amino)-N-((1-(hydroxymethyl)cyclopropyl)methyl)-7-(methylamino)pyrazolo[1,5-a]pyrimidine-3-carboxamide], for which the Kd in assay [1] is 0.2 to 1 nM. The inhibition at 10 µM is less than 50% in assay [2] (compound at 10 μM, ATP 10 μM) and less than 50% in assay [3] (compound at 10 μM, ATP 10 μM).
Molecule `CNc1cc(Nc2cccc([C@H]3CCCOC3)n2)nc2c(C(=O)N[C@@H]3CC[C@@H]3O)cnn12` [I-604] came in with a dissociation constant Kd in assay [1] of less than 0.2 nM. Also, the inhibition at 10 µM in assay [2] (compound at 10 μM, ATP 10 μM) is less than 50%; in assay [3] (compound at 10 μM, ATP 10 μM), less than 50%.
In assay [1], `CNc1cc(Nc2cccn([C@@H]3CCC[C@@H](OC)C3)c2=O)nc2c(C(=O)NCC3(CO)CC3)cnn12` [I-1087] showed a Kd of less than 0.2 nM. Besides, the inhibition at 10 µM in assay [2] (10 μM compound, 10 μM ATP) is less than 50%; in assay [3] (10 μM compound, 10 μM ATP), less than 50%.
Take `CNc1cc(-n2cc(N3CCN(C)CC3)c3ncccc32)nc2c(C(=O)N[C@H]3C[C@H]3F)cnn12` [I-575]: the Kd in assay [1] fell in the range of 1 to 10 nM. The inhibition at 10 µM is less than 50% in assay [2] (compound at 10 μM, ATP 10 μM) and less than 50% in assay [3] (compound at 10 μM, ATP 10 μM).
Turning to `CNc1cc(-c2cn(CCN3CCOCC3)c3ncccc23)nc2c(C(=O)N[C@H]3C[C@H]3F)cnn12` [I-583], in assay [1], the Kd was less than 0.2 nM. Further, the inhibition at 10 µM is less than 50% in assay [2] (compound at 10 μM, ATP 10 μM) and less than 50% in assay [3] (compound at 10 μM, ATP 10 μM).
With `CNc1cc(Nc2cccn([C@H]3CCCOC3)c2=O)nc2c(C(=O)N[C@@H]3CC[C@@H](O)C3)cnn12` [I-729], the Kd in assay [1] is less than 0.2 nM. The inhibition at 10 µM in assay [2] (compound at 10 μM, ATP 10 μM) was less than 50%; in assay [3] (compound at 10 μM, ATP 10 μM) it was less than 50%.
For the molecule `CNc1cc(-c2cn(C(C)C)c3ncc(Cl)cc23)nc2c(C(=O)N[C@@H]3C[C@@H]3F)cnn12` (stereo in doubt) [I-254, 5-(5-chloro-1-isopropyl-1H-pyrrolo[2,3-b]pyridin-3-yl)-N-((1R,2S)-2-fluorocyclopropyl)-7-(methylamino)pyrazolo[1,5-a]pyrimidine-3-carboxamide], the Kd in assay [1] lay within 0.2 to 1 nM. Besides, the inhibition at 10 µM in assay [2] (compound at 10 μM, ATP 10 μM) was less than 50%; in assay [3] (compound at 10 μM, ATP 10 μM), less than 50%.
For `CNc1cc(Nc2cccn(-c3nn(C)c(C)c3C)c2=O)nc2c(C(=O)NC3CC3)cnn12` [I-504], in assay [1], the equilibrium dissociation constant (Kd) lay in the range of 0.2 to 1 nM. For the same molecule, the inhibition at 10 µM is less than 50% in assay [2] (compound at 10 μM, ATP 10 μM) and less than 50% in assay [3] (compound at 10 μM, ATP 10 μM).
`CNc1cc(-c2cn(C(C)C)c3ncccc23)nc2c(C(=O)NCC(C)(C)CO)cnn12` [I-588, N-(3-hydroxy-2,2-dimethylpropyl)-5-(1-isopropyl-1H-pyrrolo[2,3-b]pyridin-3-yl)-7-(methylamino)pyrazolo[1,5-a]pyrimidine-3-carboxamide]: the Kd in assay [1] was 0.2 to 1 nM. The inhibition at 10 µM in assay [2] (compound at 10 μM, ATP 10 μM) was less than 50%; in assay [3] (compound at 10 μM, ATP 10 μM), less than 50%.
The molecule `CCCCn1cc(-c2cc(NC)n3ncc(C(=O)NC4CC4)c3n2)c2cccnc21` [I-477] showed a Kd in assay [1] of 0.2 to 1 nM. Besides, the inhibition at 10 µM in assay [2] (compound at 10 μM, ATP 10 μM) was less than 50%; in assay [3] (compound at 10 μM, ATP 10 μM), less than 50%.
Consider `CNc1cc(Nc2cc(F)cn(-c3nn(C)cc3C)c2=O)nc2c(C(=O)NC3CC3)cnn12` [I-431], for which the Kd in assay [1] is more than 10 nM. The inhibition at 10 µM is less than 50% in assay [2] (compound at 10 μM, ATP 10 μM) and less than 50% in assay [3] (compound at 10 μM, ATP 10 μM).
